Measured values from patent US20220098646A1, “DETECTION METHOD OF PAN-RESISTANT K. PNEUMONIAE, SCREENING METHOD OF ANTIMICROBIAL AGENTS, AND RECORDING MEDIA AND DATABASE” (TEIKYO UNIVERSITY, priority 2019, published 2022).
≈ marks a conversion by molar mass, not a printed value.

What was measured:
K. pneumoniae TK1401 [1] = assay: Antimicrobial susceptibility testing, broth microdilution method; assay type: cell-based, Klebsiella pneumoniae; conditions: for MIC: Klebsiella pneumoniae
Description: (§1) Testing was performed using a MicroScan WalkAway apparatus (Beckman Coulter, Brea, Calif., USA). The minimal inhibitory concentration (MIC) of colistin was confirmed using the Etest (bioMérieux, Marcy l'Etoile, France) and the broth microdilution method. Antimicrobial susceptibility was defined according to breakpoints listed in the Clinical and Laboratory Standards Institute (CLSI) guidelines (M100-S24).

K. pneumoniae TK1401 [2] = assay: Antimicrobial susceptibility testing, MicroScan WalkAway apparatus; assay type: cell-based, Klebsiella pneumoniae; conditions: for Minimum inhibitory concentration / MIC: K. pneumoniae isolate TK1401, MicroScan WalkAway, CLSI M100-S24 breakpoints; for MIC: Klebsiella pneumoniae, read-out: Minimum inhibitory concentration
Description: as §1

[3] = K. pneumoniae isolate TK1401, broth microdilution method (footnote b), read-out: Minimum inhibitory concentration
[4] = K. pneumoniae isolate TK1401, broth microdilution method (footnote b)

## C[C@@H]1O[C@@H]1P(=O)(O)O [Fosfomycin]
K. pneumoniae TK1401 [1]; [3]
  MIC: > 256 mg/L
K. pneumoniae TK1401 [2]; breakpoints of CLSI guidelines M100-S24
  Antimicrobial susceptibility of the isolate (in words): not susceptible

## CO/N=C(\C(=O)N[C@@H]1C(=O)N2C(C(=O)O)=C(COC(C)=O)CS[C@H]12)c1csc(N)n1 [Cefotaxim]
K. pneumoniae TK1401 [2]
  Minimum inhibitory concentration: >2 mg/L

## C[C@@H](O)[C@H]1C(=O)N2C(C(=O)O)=C(SCCN=CN)C[C@H]12 [Imipenem]
K. pneumoniae TK1401 [2]
  MIC: > 8 mg/L

## Gentamicin
K. pneumoniae TK1401 [2]
  Minimum inhibitory concentration: >8 mg/L

## NCC[C@H](O)C(=O)N[C@@H]1C[C@H](N)[C@@H](O[C@H]2O[C@H](CN)CC[C@H]2N)[C@H](O)[C@H]1O[C@H]1O[C@H](CO)[C@@H](O)[C@H](N)[C@H]1O [Arbekacin]
K. pneumoniae TK1401 [1]; [3]
  MIC: > 256 mg/L

## CO/N=C(\C(=O)N[C@@H]1C(=O)N2C(C(=O)O)=C(CSc3nc(=O)c(=O)[nH]n3C)CS[C@H]12)c1csc(N)n1 [Ceftriaxone]
K. pneumoniae TK1401 [2]
  MIC: > 16 mg/L

## CC1(C)S[C@@H]2[C@H](NC(=O)[C@H](N)c3ccc(O)cc3)C(=O)N2[C@H]1C(=O)O [Amoxicillin]
K. pneumoniae TK1401 [2]
  MIC: > 16 mg/L

## CO/N=C(\C(=O)N[C@@H]1C(=O)N2C(C(=O)[O-])=C(C[n+]3ccn4ncccc43)CS[C@H]12)c1nsc(N)n1 [Cefozopran]
K. pneumoniae TK1401 [2]
  MIC: > 16 mg/L

## COCC1=C(C(=O)O)N2C(=O)[C@@H](NC(=O)/C(=N\OC)c3csc(N)n3)[C@H]2SC1 [Cefpodoxime]
K. pneumoniae TK1401 [2]
  MIC: > 4 mg/L

## Polymyxin B
K. pneumoniae TK1401 [1]; [4]
  Minimum inhibitory concentration: 64 mg/L

## NCC[C@H](O)C(=O)N[C@@H]1C[C@H](N)[C@@H](O[C@H]2O[C@H](CN)[C@@H](O)[C@H](O)[C@H]2O)[C@H](O)[C@H]1O[C@H]1O[C@H](CO)[C@@H](O)[C@H](N)[C@H]1O [Amikacin]
K. pneumoniae TK1401 [2]
  MIC: > 32 mg/L

## Colistin
K. pneumoniae TK1401 [1]; [4]
  Minimum inhibitory concentration: 64 mg/L

## Cc1nnc(SCC2=C(C(=O)O)N3C(=O)[C@@H](NC(=O)Cn4cnnn4)[C@H]3SC2)s1 [Cefazolin]
K. pneumoniae TK1401 [2]
  MIC: > 16 mg/L

## C=CC1=C(C(=O)O)N2C(=O)[C@@H](NC(=O)/C(=N\O)c3csc(N)n3)[C@H]2SC1 [Cefdinir]
K. pneumoniae TK1401 [2]
  MIC: > 2 mg/L

## C[C@@H](O)[C@H]1C(=O)N2C(C(=O)O)=C(S[C@@H]3CN[C@H](CNS(N)(=O)=O)C3)[C@H](C)[C@H]12 [Doripenem]
K. pneumoniae TK1401 [2]
  MIC: > 8 mg/L

## CCN1CCN(C(=O)N[C@@H](C(=O)N[C@@H]2C(=O)N3[C@@H]2SC(C)(C)[C@@H]3C(=O)O)c2ccccc2)C(=O)C1=O [Piperacillin]
K. pneumoniae TK1401 [2]
  MIC: > 64 mg/L

## CN(C)c1cc(NC(=O)CNC(C)(C)C)c(O)c2c1C[C@H]1C[C@H]3[C@H](N(C)C)C(O)=C(C(N)=O)C(=O)[C@@]3(O)C(O)=C1C2=O [Tigecycline]
K. pneumoniae TK1401 [1]; TK1401, read-out: Minimum inhibitory concentration
  MIC: 16 mg/L (≈ 27.3 µM)

## C[C@H]1COc2c(N3CCN(C)CC3)c(F)cc3c(=O)c(C(=O)O)cn1c23 [Levofloxacin]
K. pneumoniae TK1401 [2]
  MIC: > 4 mg/L

## N[C@@H](C(=O)N[C@@H]1C(=O)N2C(C(=O)O)=C(Cl)CS[C@H]12)c1ccccc1 [Cefaclor]
K. pneumoniae TK1401 [2]
  MIC: > 16 mg/L

## CO[C@@]1(NC(=O)CSCC#N)C(=O)N2C(C(=O)O)=C(CSc3nnnn3C)CS[C@@H]21 [Cefmerazole]
K. pneumoniae TK1401 [2]
  Minimum inhibitory concentration: >32 mg/L

## CN(C)c1ccc(O)c2c1C[C@H]1C[C@H]3[C@H](N(C)C)C(O)=C(C(N)=O)C(=O)[C@@]3(O)C(O)=C1C2=O [Minocycline]
K. pneumoniae TK1401 [1]; [3]
  MIC: 256 mg/L (≈ 560 µM)

## CO/N=C(\C(=O)N[C@@H]1C(=O)N2C(C(=O)[O-])=C(C[N+]3(C)CCCC3)CS[C@H]12)c1csc(N)n1 [Cefepime]
K. pneumoniae TK1401 [2]
  MIC: > 2 mg/L

## CC(C)(O/N=C(\C(=O)N[C@@H]1C(=O)N2C(C(=O)[O-])=C(C[n+]3ccccc3)CS[C@H]12)c1csc(N)n1)C(=O)O [Ceftazidime]
K. pneumoniae TK1401 [2]
  MIC: > 16 mg/L

## CN(C)CCn1nnnc1SCC1=C(C(=O)O)N2C(=O)[C@@H](NC(=O)Cc3csc(N)n3)[C@H]2SC1 [Cefotiam]
K. pneumoniae TK1401 [2]
  MIC: > 16 mg/L

## CC1(C)S[C@@H]2[C@H](NC(=O)[C@H](N)c3ccccc3)C(=O)N2[C@H]1C(=O)O [Ampicillin]
K. pneumoniae TK1401 [2]
  MIC: > 16 mg/L

## CO[C@@]1(NC(=O)CSC(F)F)C(=O)N2C(C(=O)O)=C(CSc3nnnn3CCO)CO[C@@H]21 [Flomoxef]
K. pneumoniae TK1401 [2]
  MIC: > 32 mg/L

## O=C(N[C@H](CO)[C@H](O)c1ccc([N+](=O)[O-])cc1)C(Cl)Cl [Chloramphenicol]
K. pneumoniae TK1401 [1]; [3]
  MIC: > 256 mg/L

## NC[C@H]1O[C@H](O[C@H]2[C@H](O)[C@@H](O[C@H]3O[C@H](CO)[C@@H](O)[C@H](N)[C@H]3O)[C@H](N)C[C@@H]2N)[C@H](N)C[C@@H]1O [Tobramycin]
K. pneumoniae TK1401 [2]
  MIC: > 8 mg/L

## C[C@@H](O)[C@H]1C(=O)N2C(C(=O)O)=C(S[C@@H]3CN[C@H](C(=O)N(C)C)C3)[C@H](C)[C@H]12 [Meropenem]
K. pneumoniae TK1401 [2]
  MIC: > 8 mg/L
